# In the NIST ThermoML archive (doi:10.1021/je4003256):
# ± gives the expanded uncertainty stated by the source.
# Conditions: 101.33 kPa, Liquid; for speed of sound: Pulse-echo method; for mass density: Vibrating tube method
Compound,speed of sound (318.15 K) [m/s],mass density (318.15 K) [kg/m3],speed of sound (323.15 K) [m/s],mass density (323.15 K) [kg/m3],speed of sound (328.15 K) [m/s],mass density (328.15 K) [kg/m3],speed of sound (333.15 K) [m/s],mass density (333.15 K) [kg/m3],speed of sound (338.15 K) [m/s],mass density (338.15 K) [kg/m3],speed of sound (343.15 K) [m/s],mass density (343.15 K) [kg/m3],speed of sound (293.15 K) [m/s],mass density (293.15 K) [kg/m3],speed of sound (298.15 K) [m/s],mass density (298.15 K) [kg/m3],speed of sound (303.15 K) [m/s],mass density (303.15 K) [kg/m3],speed of sound (308.15 K) [m/s],mass density (308.15 K) [kg/m3],further results
Oc1ccccc1 [phenol],1437.2 ± 1.3,1054.1 ± 0.27,1422.1 ± 1.3,1049.81 ± 0.27,1406.8 ± 1.2,1045.5 ± 0.27,1391.4 ± 1.2,1041.16 ± 0.26,1376.1 ± 1.2,1036.79 ± 0.26,1360.6 ± 1.2,1032.4 ± 0.26,,,,,,,,,
Cc1cccc(O)c1 [3-methylphenol],1419.5 ± 1.3,1013.99 ± 0.24,1403.9 ± 1.2,1009.97 ± 0.24,1388.4 ± 1.2,1005.91 ± 0.23,1372.9 ± 1.2,1001.84 ± 0.23,1357.3 ± 1.2,997.743 ± 0.23,1341.8 ± 1.2,993.626 ± 0.23,1497.9 ± 1.3,1033.84 ± 0.26,1481.9 ± 1.3,1029.91 ± 0.25,1466.2 ± 1.3,1025.96 ± 0.25,1450.5 ± 1.3,1021.99 ± 0.25,speed of sound (313.15 K): 1435 ± 1.3 m/s; mass density (313.15 K): 1018 ± 0.24 kg/m3
C=CCc1ccc(O)c(OC)c1 [2-hydroxy-5-allylanisole],1406.1 ± 1.2,1044.35 ± 0.27,1388.2 ± 1.2,1039.92 ± 0.26,1370.5 ± 1.2,1035.48 ± 0.26,1352.8 ± 1.2,1031.04 ± 0.25,1335.2 ± 1.2,1026.6 ± 0.25,1317.8 ± 1.2,1022.15 ± 0.25,1497 ± 1.3,1066.48 ± 0.28,1478.7 ± 1.3,1062.06 ± 0.28,1460.3 ± 1.3,1057.64 ± 0.28,1442.2 ± 1.3,1053.21 ± 0.27,speed of sound (288.15 K): 1515.3 ± 1.3 m/s; mass density (288.15 K): 1070.9 ± 0.29 kg/m3; speed of sound (313.15 K): 1424.1 ± 1.3 m/s; mass density (313.15 K): 1048.78 ± 0.27 kg/m3
COC(=O)c1ccccc1O [methyl 2-hydroxybenzoate],1338.1 ± 1.2,1159.4 ± 0.36,1320.4 ± 1.2,1154.42 ± 0.36,1302.8 ± 1.2,1149.45 ± 0.35,1285.4 ± 1.2,1144.46 ± 0.35,1268.1 ± 1.2,1139.47 ± 0.34,1250.9 ± 1.2,1134.49 ± 0.34,1429.1 ± 1.3,1184.33 ± 0.38,1410.6 ± 1.3,1179.34 ± 0.38,1392.3 ± 1.2,1174.35 ± 0.37,1374 ± 1.2,1169.37 ± 0.37,speed of sound (288.15 K): 1447.6 ± 1.3 m/s; mass density (288.15 K): 1189.32 ± 0.39 kg/m3; speed of sound (313.15 K): 1356 ± 1.2 m/s; mass density (313.15 K): 1164.38 ± 0.36 kg/m3
Cc1ccccc1O [2-methylphenol],1435.2 ± 1.3,1023.83 ± 0.25,1417.7 ± 1.3,1019.39 ± 0.24,1400.2 ± 1.2,1014.93 ± 0.24,1382.8 ± 1.2,1010.46 ± 0.24,1365.3 ± 1.2,1005.97 ± 0.23,1347.7 ± 1.2,1001.46 ± 0.23,1522.6 ± 1.3,1045.77 ± 0.27,1505.5 ± 1.3,1041.41 ± 0.26,1488.2 ± 1.3,1037.05 ± 0.26,1470.2 ± 1.3,1032.64 ± 0.26,speed of sound (313.15 K): 1452.7 ± 1.3 m/s; mass density (313.15 K): 1028.25 ± 0.25 kg/m3
Cc1ccc(O)cc1 [4-methylphenol],1424.3 ± 2.1,1014.66 ± 0.87,1408.7 ± 2.1,1010.7 ± 0.86,1393 ± 2.1,1006.72 ± 0.85,1377.4 ± 2.1,1002.7 ± 0.84,1361.8 ± 2.1,998.659 ± 0.84,1346.2 ± 2.1,994.587 ± 0.83,1502.9 ± 2.1,1034.09 ± 0.91,1487.2 ± 2.1,1030.25 ± 0.9,1471.4 ± 2.1,1026.39 ± 0.89,1455.6 ± 2.1,1022.5 ± 0.88,speed of sound (313.15 K): 1440 ± 2.1 m/s; mass density (313.15 K): 1018.59 ± 0.88 kg/m3
COc1ccccc1O [2-methoxyphenol],1451.5 ± 1.3,1109.51 ± 0.32,1432.4 ± 1.3,1104.63 ± 0.32,1413.5 ± 1.3,1099.74 ± 0.31,1394.6 ± 1.2,1094.84 ± 0.31,1375.8 ± 1.2,1089.94 ± 0.3,1357.1 ± 1.2,1085.02 ± 0.3,1548.3 ± 1.3,1133.81 ± 0.34,1528.7 ± 1.3,1128.96 ± 0.34,1509.3 ± 1.3,1124.11 ± 0.33,1490 ± 1.3,1119.25 ± 0.33,speed of sound (288.15 K): 1567.6 ± 1.3 m/s; mass density (288.15 K): 1138.64 ± 0.34 kg/m3; speed of sound (313.15 K): 1470.7 ± 1.3 m/s; mass density (313.15 K): 1114.38 ± 0.32 kg/m3
